Experimental data reported in patent US12391737B2, “Soluble NPY2 receptor agonists” (Boehringer Ingelheim International GmbH, priority 2020, dated 2025).
*1 amine or outer side, *2 acyl side, *3 side chain or, on linkers, in order; H or OH if unused. Where a SMILES comes first, the peptide text is derived from it. Side-chain parts run from the residue outwards. The star is where a group is joined. C18 diacid = O=C(O)CCCCCCCCCCCCCCCCC(=O)*; γGlu = O=C(O)[C@H](CCC(=O)[*:2])N[*:1]; Isovaleryl = CC(C)CC(=O)*; Ahx = NCCCCCC(=O)O

Columns and labels:
[1] = target: T1, Human Neuropeptide Y2 Receptor (Homo sapiens, UniProt P49146); assay: Radioligand binding competition assay (RLB); details: Table 3, 125I-PYY(1-36) competition; read-out: Ki
T1 construct: purchased CHEMICON HTS066M
T1 sequence (P49146 1-381): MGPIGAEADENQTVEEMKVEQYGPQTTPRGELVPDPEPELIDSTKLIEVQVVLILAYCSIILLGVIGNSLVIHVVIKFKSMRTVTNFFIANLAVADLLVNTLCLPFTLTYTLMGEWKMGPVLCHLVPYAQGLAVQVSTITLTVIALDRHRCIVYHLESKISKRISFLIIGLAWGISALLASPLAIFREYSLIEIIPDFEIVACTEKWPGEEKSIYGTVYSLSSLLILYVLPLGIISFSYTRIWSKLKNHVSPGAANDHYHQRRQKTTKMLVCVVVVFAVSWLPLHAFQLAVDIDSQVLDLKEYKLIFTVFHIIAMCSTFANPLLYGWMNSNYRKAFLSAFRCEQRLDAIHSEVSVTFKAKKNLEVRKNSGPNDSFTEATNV
Summary of the method: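 Peptides were serially diluted from 1 mM DMSO stocks and competed for radioligand binding to receptor membranes (0.5 μg/well) over 2 h at room temperature, pH 7.4 HEPES buffer. Bound radioactivity on filters was counted by scintillation, and IC50 was derived by nonlinear regression.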

Solubility determination = details: for Sol6: pH 6; for Sol7: pH 7
Summary of the method: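 Sample: TFA-salt peptide at 10 mg/ml target in 0.1 M Na diphosphate, pH 6.4 or 7.0, shaken 2 h RT, filtered, diluted to 1 mg/ml.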

Compound	Ki [1] [nM]	Sol6 (Solubility determination) [mg/mL]	Sol7 (Solubility determination) [mg/mL]
CC(C)CC(=O)N[C@@H](C)C(=O)N1CCC[C@H]1C(=O)N[C@@H](C)C(=O)N[C@@H](CCCCNC(=O)CCCCCNC(=O)CC[C@H](NC(=O)CCCCCCCCCCCCCCCCC(=O)O)C(=O)O)C(=O)N1CCC[C@H]1C(=O)N[C@@H](CCC(=O)O)C(=O)N[C@@H](C)C(=O)N[C@@H](C)C(=O)N[C@@H](C)C(=O)N[C@@H](CCC(=O)O)C(=O)N1CCC[C@H]1C(=O)N[C@@H](CCC(=O)O)C(=O)N[C@@H](CCC(=O)O)C(=O)N[C@@H](CC(C)C)C(=O)N[C@@H](CCC(N)=O)C(=O)N[C@@H](CCCNC(=N)N)C(=O)N[C@@H](Cc1ccc(O)cc1)C(=O)N[C@@H](Cc1ccc(O)cc1)C(=O)N[C@H](C(=O)N[C@@H](CO)C(=O)N[C@@H](CC(C)C)C(=O)N[C@@H](CCCNC(=N)N)C(=O)N[C@@H](Cc1c[nH]cn1)C(=O)N[C@@H](Cc1ccc(O)cc1)C(=O)N[C@@H](Cc1ccc(O)cc1)C(=O)N[C@@H](CC(N)=O)C(=O)N[C@@H](Cc1c[nH]c2ccccc12)C(=O)N[C@@H](CC(C)C)C(=O)N[C@H](C(=O)N[C@@H](CCCNC(=N)N)C(=O)N[C@@H](CCC(N)=O)C(=O)N[C@@H](CCCNC(=N)N)C(=O)N[C@@H](Cc1ccc(O)cc1)C(N)=O)[C@@H](C)O)C(C)C [Compound 43, N{alpha-4}-(3-methylbutanoyl)-N{epsilon-7}-(6-[(4S)-4-carboxy-4-(17-carboxyheptadecanamido)butanamido]hexanoyl)[4A,6A,7K,9E,10A,11A,13E,18Q,22V,28Y,30W,31L]-hPYY(4-36)] (Isovaleryl-APAK([Ahx-γGlu-C18 diacid])PEAAAEPEELQRYYVSLRHYYNWLTRQRY-NH2)	2.49	0.0	0.0
CC(C)CC(=O)N[C@@H](C)C(=O)N1CCC[C@H]1C(=O)N[C@@H](CCC(=O)O)C(=O)N[C@@H](CCCCNC(=O)CCCCCNC(=O)CC[C@H](NC(=O)CCCCCCCCCCCCCCCCC(=O)O)C(=O)O)C(=O)N1CCC[C@H]1C(=O)N[C@@H](CCC(=O)O)C(=O)N[C@@H](CCC(=O)O)C(=O)N[C@@H](CC(=O)O)C(=O)N[C@@H](C)C(=O)N[C@@H](CO)C(=O)N1CCC[C@H]1C(=O)N[C@@H](CCC(=O)O)C(=O)N[C@@H](CCC(=O)O)C(=O)N[C@@H](CC(C)C)C(=O)N[C@@H](CCC(N)=O)C(=O)N[C@@H](CCCNC(=N)N)C(=O)N[C@@H](Cc1ccc(O)cc1)C(=O)N[C@@H](Cc1ccc(O)cc1)C(=O)N[C@H](C(=O)N[C@@H](CCC(=O)O)C(=O)N[C@@H](CC(C)C)C(=O)N[C@@H](CCCNC(=N)N)C(=O)N[C@@H](Cc1c[nH]cn1)C(=O)N[C@@H](Cc1ccc(O)cc1)C(=O)N[C@@H](Cc1ccc(O)cc1)C(=O)N[C@@H](CC(N)=O)C(=O)N[C@@H](Cc1c[nH]c2ccccc12)C(=O)N[C@@H](CC(C)C)C(=O)N[C@H](C(=O)N[C@@H](CCCNC(=N)N)C(=O)N[C@@H](CCC(N)=O)C(=O)N[C@@H](CCCNC(=N)N)C(=O)N[C@@H](Cc1ccc(O)cc1)C(N)=O)[C@@H](C)O)C(C)C [Compound 125, N{alpha-4}-(3-methylbutanoyl)-N{epsilon-7}-(6-[(4S)-4-carboxy-4-(17-carboxyheptadecanamido)butanamido]hexanoyl)-[4A,7K,9E,18Q,22V,23E,28Y,30W,31L]-hPYY(4-36)]	3.37	9.7	10.0
CC(C)CC(=O)N[C@@H](C)C(=O)N1CCC[C@H]1C(=O)N[C@@H](CCC(=O)O)C(=O)N[C@@H](CCCCNC(=O)CCCCCNC(=O)CC[C@H](NC(=O)CCCCCCCCCCCCCCCCC(=O)O)C(=O)O)C(=O)N1CCC[C@H]1C(=O)N[C@@H](CCC(=O)O)C(=O)N[C@@H](CCC(=O)O)C(=O)N[C@@H](CC(=O)O)C(=O)N[C@@H](C)C(=O)N[C@H](C(=O)N1CCC[C@H]1C(=O)N[C@@H](CCC(=O)O)C(=O)N[C@@H](CCC(=O)O)C(=O)N[C@@H](CC(C)C)C(=O)N[C@@H](CCC(N)=O)C(=O)N[C@@H](CC(C)C)C(=O)N[C@@H](Cc1ccc(O)cc1)C(=O)N[C@@H](Cc1ccc(O)cc1)C(=O)N[C@H](C(=O)N[C@@H](CO)C(=O)N[C@@H](CC(C)C)C(=O)N[C@@H](CCCNC(=N)N)C(=O)N[C@@H](Cc1c[nH]cn1)C(=O)N[C@@H](Cc1ccc(O)cc1)C(=O)N[C@@H](Cc1ccc(O)cc1)C(=O)N[C@@H](CC(N)=O)C(=O)N[C@@H](Cc1c[nH]c2ccccc12)C(=O)N[C@@H](CC(C)C)C(=O)N[C@H](C(=O)N[C@@H](CCCNC(=N)N)C(=O)N[C@@H](CCC(N)=O)C(=O)N[C@@H](CCCNC(=N)N)C(=O)N[C@@H](Cc1ccc(O)cc1)C(N)=O)[C@@H](C)O)C(C)C)[C@@H](C)O [Compound 130, N{alpha-4}-(3-methylbutanoyl)-N{epsilon-7}-(6-[(4S)-4-carboxy-4-(17-carboxyheptadecanamido)butanamido]hexanoyl)-[4A,7K,9E,13T,18Q,19L,22V,28Y,30W,31L]-hPYY(4-36)]	9.36	9.9	10.0
CC(C)CC(=O)N[C@@H](C)C(=O)N1CCC[C@H]1C(=O)N[C@@H](C)C(=O)N[C@@H](CCCCNC(=O)CCCCCNC(=O)CC[C@H](NC(=O)CCCCCCCCCCCCCCCCC(=O)O)C(=O)O)C(=O)N1CCC[C@H]1C(=O)N[C@@H](CCC(=O)O)C(=O)N[C@@H](CCC(=O)O)C(=O)N[C@@H](CC(=O)O)C(=O)N[C@@H](C)C(=O)N[C@@H](CCC(=O)O)C(=O)N1CCC[C@H]1C(=O)N[C@@H](CCC(=O)O)C(=O)N[C@@H](CCC(=O)O)C(=O)N[C@@H](CC(C)C)C(=O)N[C@@H](CCC(N)=O)C(=O)N[C@@H](CCCNC(=N)N)C(=O)N[C@@H](Cc1ccc(O)cc1)C(=O)N[C@@H](Cc1ccc(O)cc1)C(=O)N[C@H](C(=O)N[C@@H](CO)C(=O)N[C@@H](CC(C)C)C(=O)N[C@@H](CCCNC(=N)N)C(=O)N[C@@H](Cc1c[nH]cn1)C(=O)N[C@@H](Cc1ccc(O)cc1)C(=O)N[C@@H](Cc1ccc(O)cc1)C(=O)N[C@@H](CC(N)=O)C(=O)N[C@@H](Cc1c[nH]c2ccccc12)C(=O)N[C@@H](CC(C)C)C(=O)N[C@H](C(=O)N[C@@H](CCCNC(=N)N)C(=O)N[C@@H](CCC(N)=O)C(=O)N[C@@H](CCCNC(=N)N)C(=O)N[C@@H](Cc1ccc(O)cc1)C(N)=O)[C@@H](C)O)C(C)C [Compound 133, N{alpha-4}-(3-methylbutanoyl)-N{epsilon-7}-(6-[(4S)-4-carboxy-4-(17-carboxyheptadecanamido)butanamido]hexanoyl)-[4A,6A,7K,9E,13E,18Q,22V,28Y,30W,31L]-hPYY(4-36)]	4.68	9.6	9.7
CC(C)CC(=O)N[C@@H](C)C(=O)N1CCC[C@H]1C(=O)N[C@@H](CCC(=O)O)C(=O)N[C@@H](CCCCNC(=O)CCCCCNC(=O)CC[C@H](NC(=O)CCCCCCCCCCCCCCCCC(=O)O)C(=O)O)C(=O)N1CCC[C@H]1C(=O)N[C@@H](CCC(=O)O)C(=O)N[C@@H](CCC(=O)O)C(=O)N[C@@H](CC(=O)O)C(=O)N[C@@H](C)C(=O)N[C@H](C(=O)N[C@@H](CC(C)C)C(=O)N[C@@H](CCC(=O)O)C(=O)N[C@@H](CCC(=O)O)C(=O)N[C@@H](CC(C)C)C(=O)N[C@@H](CCC(N)=O)C(=O)N[C@@H](CCCNC(=N)N)C(=O)N[C@@H](Cc1ccc(O)cc1)C(=O)N[C@@H](Cc1ccc(O)cc1)C(=O)N[C@H](C(=O)N[C@@H](CO)C(=O)N[C@@H](CC(C)C)C(=O)N[C@@H](CCCNC(=N)N)C(=O)N[C@@H](Cc1c[nH]cn1)C(=O)N[C@@H](Cc1ccc(O)cc1)C(=O)N[C@@H](Cc1ccc(O)cc1)C(=O)N[C@@H](CC(N)=O)C(=O)N[C@@H](Cc1c[nH]c2ccccc12)C(=O)N[C@@H](CC(C)C)C(=O)N[C@H](C(=O)N[C@@H](CCCNC(=N)N)C(=O)N[C@@H](CCC(N)=O)C(=O)N[C@@H](CCCNC(=N)N)C(=O)N[C@@H](Cc1ccc(O)cc1)C(N)=O)[C@@H](C)O)C(C)C)[C@@H](C)O [Compound 102, N{alpha-4}-(3-methylbutanoyl)-N{epsilon-7}-(6-[(4S)-4-carboxy-4-(17-carboxyheptadecanamido)butanamido]hexanoyl)-[4A,7K,9E,13T,14L,18Q,22V,28Y,30W,31L]-hPYY(4-36)]	7.15	10.0	9.7
